Results published in patent US5874472A, “Aminoacid derivatives as no synthase inhibitors” (Glaxo Wellcome Inc., priority 1993, dated 1999).

Legend:
Format in all cases: biochemical
[1] = target: T1, human brain NOS (Homo sapiens, UniProt P29475); experiment: Inhibition of human brain NOS (citrulline formation); settings: Schmidt et al. 1991 procedure, 10 μM tetrahydrobiopterin included
T1 construct: Purification of NOS from human brain; from tissue; host or cells: frozen human brain; ammonium sulfate, 2',5' ADP-agarose, calmodulin-agarose
Experimental: Purification of NOS from human brain
Human brain NOS was prepared using variations of the procedures of Schmidt et al. (PNAS 88 365-369, 1991), Mayer et al. (Fed. Eur. Biochem. Soc. 288 187-191, 1991), and Bredt and Snyder, (PNAS 87 682-685, 1990). Briefly, frozen human brain (1050 gm) was homogenized in cold buffer A (50 mM HEPES, pH 7.5 (pH at RT) and 0.5 mM EDTA, 10 mM DTT, 3.6 L total volume) with a polytron. The mixture was centrifuged at 13,000 g for 1 hour and the supernatant was removed (about 2050 ml). To the supernatant, solid aimmonium sulfate (365 gm, about 30% of saturation) was added and stirred slowly for a total of 30 minutes. The precipitate was pelleted at 13,000 g for 30 minutes and the pellet was resuspended in ~400 mls of buffer A with 4 μM tetrahydrobiopterin, 1 μM FAD (Sigma), 1 μM FMN (Sigma). The solution was centrifuged at 41,000 g for 60 minutes. The supernatant was removed, frozen by pouring into liquid nitrogen, and stored overnight at -70° C. The mixture was thawed and passed through a 2',5' ADP-agarose column (0.4 g swelled in buffer A) at 4 ml/min. The column was washed with 100 ml buffer A, 200 ml buffer A with 500 mM NaCl, 100 ml Buffer A, then 30 ml buffer A with 5 mM NADPH. To the enzyme eluted from the column was added glycerol to 15%, CaCl2 to 1 mM, tetrahydrobiopterin to 10 μM, tween to 0.1% and FAD, FMN to 1 μM each. The enzyme was then passed through a 1 ml calmodulin-agarose column which had been equilibrated in Buffer A, 15% glycerol and 1 mM CaCl2. The column was washed with 15 ml Buffer A, 15% glycerol and 1 mM CaCl2, 15 ml of Buffer A, 15% glycerol and 5 mM EDTA, and then enzyme activity was eluted with 3 ml of Buffer A, 15% glycerol and 5 mM EDTA, 1 M NaCl. To the enzyme was added tetrahydrobiopterin to 10 μM, FAD and FMN to 1 μM, and tween to 0.1%. This solution was concentrated by centriprep-30 to a volume of approximately 500 μl. Human NOS was prepared completely analogously except the calmodulin-agarose column was not used. Enzyme activity was determined as described by Schmidt et al. 1991, except that 10 μM tetrahydrobiopterin was included in the assay.

[2] = target: T2, inducible human NOS (Homo sapiens, UniProt P35228); experiment: Inhibition of inducible human NOS (citrulline formation), enzyme from cytokine-induced DLD-1 cells; settings: NOS from cytokine-induced DLD-1 cells; 1 μM L-[14C] arginine; pH 7.4; 10 μM FAD, no calmodulin/CaCl2
T2 construct: Purification of NOS cytokine-induced human colorectal adenocarcinoma DLD-1 cells; host or cells: DLD-1 cells induced with interferon-gamma, interleukin-6, tumor necrosis factor and interleukin-1beta; 2',5' ADP Sepharose purified
Experimental: (§1) NOS was assayed for the formation of citrulline following the procedure of Schmidt et al (PNAS 88 365-369, 1991) with these modifications: 20 mM Hepes, pH 7.4, 10 μg/ml calmodulin, 2.5 mM CaCl2 2.5 mM DTT, 125 μM NADPH 10 μM H4 Biopterin, 0.5 mg/ml BSA, and 1 μM L-[^14 C] arginine (New England Nuclear). Linearity of NOS-catalyzed rate was confirmed prior to kinetic studies that used single time point determination of rate.
Purification of NOS cytokine-induced human colorectal adenocarcinoma DLD-1 cells.
DLD-1 (ATCC No. CCL 221) were grown at 37° C., 5% CO2 in RPMI 1640 medium supplemented with L- glutamin, penicillin, streptomycin, and 10% heat-inactivated fetal bovine serum. Cells were grown to confluency and then the following cocktail of cytokines were added: 100 units/ml interferon-gamma, 200 units/ml interleukin-6, 10 ng/ml tumor necrosis factor, and 0.5 ng/ml interieukin-1β. At 10-24 hr post-induction, cells were harvested by scraping and washed with phosphate-buffered saline. Pelleted cells were stored at -70° C. Purification of the induced NOS was performed at 4° C. Crude extract was prepared by three cycles of freeze/thawing cells in TDGB (20 mM tris pH 7.5, 10% glycerol, 1 mM DTT, 2 μM tetrahydrobiopterin). Extract was applied directly onto a column of 2',5' ADP sepharse (Pharmacia). Resin was sequentially washed with TDGB, 0.5 M NaCl in TDGB, TDGB. NOS was eluted with 2 mM NADPH in TDGB. BSA was immediately added to give a final concentration of 1 mg/ml. NOS could be quick frozen and stored at -70° C. without loss in activity for at least 2 months.
Assay for inducible human NOs.
The formation of citrulline was assayed as described above except that 10 μM FAD was included and calmodulin and CaCl2 were excluded from the assay mix.

[3] = target: T3, human placental NOS (Homo sapiens, UniProt P29474); experiment: Inhibition of human placental NOS (citrulline formation); settings: 1 μM L-[14C] arginine; pH 7.4; calmodulin, CaCl2
T3 construct: Purification of NOS from human placenta; from tissue; host or cells: fresh human placenta, amnion and chorion removed; ammonium sulfate and 2',5' ADP agarose purified
Experimental: It is noted that the NO synthase isolated from human placenta most probably represents the endothelial constitutive isoenzyme.
Purification of NOS from human placenta.
Amion and chorion were removed from fresh placenta, which was then rinsed with 0.9% NaCl. The tissue was homogenized in a Waring blender in 3 volumes of HEDS buffer (20 mM Hepes pH 7.8, 0.1 mM EDTA, 5 mM DTT, 0.2M sucrose) plus 0.1 mM PMSF.
The homogenate was filtered through cheesecloth and then centrifuged at 1000 g for 20 min. The supernatant was recentrifuged at 27500 g for 30 min. Solid ammonium sulfate was added to the supernatant to give 32% saturation. Precipitated protein was pelleted at 25,000 g and then redissolved in a minimal volume of HEDS buffer plus 0.1 mM PMSF, 10 μg/ml leupeptin and soybean trypsin inhibitor, and 1 μg/ml pepstatin. The redissolved pellet was centrigued at 15000 g for 10 min. To the supernatant was added 1/20 volume of 2',5' ADP agarose resin (Sigma), and the slurry was mixed slowly overnight. In morning, slurry was packed into a column. The resin was sequentially washed with HEDS, 0.5M NaCl in HEDS, HEDS, and then NOS was eluted with 10 mM NADPH in HEDS. The enzyme could be concentrated by ultrafiltration and quick frozen and stored at -70° C. without loss in activity for at least 6 months.
Assay for human placental NOS
as §1

| Compound | Ki [1] [µM] | Ki [2] [µM] | Ki [3] [µM] |
| --- | --- | --- | --- |
| 4-Acetamido-DL-phenylalanine [Compound 15] | > 50 | > 50 | > 50 |
| CNC(=N)Nc1ccc(CC(N)C(=O)O)s1 (racemic) [Compound 1, 3-(5-N'-methylguanidino-2-thienyl)-DL-alanine] | ≤ 50 | > 50 | ≤ 10 |
| N=C(N)Nc1ccc(CC(N)C(=O)O)s1 (racemic) [Compound 2, 3-(5-Guanidino-2-thienyl)-DL-alanine] | ≤ 10 | ≤ 50 | ≤ 50 |
| NC(N)=Nc1ccccc1CC(N)C(=O)O (racemic) [Compound 3, 2-Guanidino-DL-phenylalanine] | ≤ 0.5 | ≤ 10 | ≤ 0.5 |
| CCSC(=N)Nc1ccc(CC(N)C(=O)O)s1 (racemic) [Compound 4, 3-(5-S-ethylisothioureido-2-thienyl)-DL-alanine] | ≤ 50 | > 50 | ≤ 10 |
| N=C(Nc1ccc(CC(N)C(=O)O)s1)NC1CC1 (racemic) [Compound 5, 3-(5-N'-cyclopropylguanidino-2-thienyl)-DL-alanine] | ≤ 10 | > 50 | ≤ 10 |
| C=CCNC(=N)Nc1ccc(CC(N)C(=O)O)s1 (racemic) [Compound 6, 3-(5-N'-allylguanidino-2-thienyl)-DL-alanine] | ≤ 10 | ≤ 10 | ≤ 10 |
| NC(=S)Nc1ccccc1CC(N)C(=O)O (racemic) [Compound 7, 2-thioureido-DL-phenylalanine] | ≤ 10 | ≤ 10 | ≤ 10 |
| CSC(=N)Nc1ccccc1CC(N)C(=O)O (racemic) [Compound 8, 2-(S-methylisothioureido)-DL-phenylalanine] | ≤ 1 | ≤ 10 | ≤ 1 |
| CCSC(=N)Nc1ccccc1CC(N)C(=O)O (racemic) [Compound 9, 2-(S-ethylisothioureido)-DL-phenylalanine] | ≤ 0.5 | ≤ 1 | ≤ 0.5 |
| C/N=C(/N)Nc1ccccc1CC(N)C(=O)O (racemic) [Compound 10, 2-(N'-methylguanidino)-DL-phenylalanine] | ≤ 0.5 | ≤ 1 | ≤ 0.5 |
| NC(=NC1CC1)Nc1ccccc1CC(N)C(=O)O (racemic) [Compound 11, 2-(N'-cyclopropylguanidino)-DL-phenylalanine] | ≤ 1 | ≤ 1 | ≤ 0.5 |
| N=C(N)Nc1cccc(CC(N)C(=O)O)c1 (racemic) [Compound 12, 3-guanidino-DL-phenylalanine] | ≤ 50 | > 50 | ≤ 50 |
| N=C(N)Nc1ccc(CC(N)C(=O)O)cc1 (racemic) [Compound 13, 4-Guanidino-DL-phenylalanine] | > 50 | > 50 | > 50 |
| CC(=N)Nc1cccc(CC(N)C(=O)O)c1 (racemic) [Compound 14, 3-acetamidino-DL-phenylalanine] | > 50 | > 50 | > 50 |
| CNC(N)=Nc1cccc(CC(N)C(=O)O)c1 (racemic) [Compound 16, 3-N-methylguanidino-DL-phenylalanine] | ≤ 10 | > 50 | ≤ 10 |

Further lines, results first:

| Ki [1] [µM] | Ki [2] [µM] | Ki [3] [µM] | Compound |
| --- | --- | --- | --- |
| ≤ 50 | > 50 | ≤ 50 | CNC(=N)Nc1ccc(CC(N)C(=O)O)cc1 (racemic) [Compound 17, 4-N-methylguanidino-DL-phenylalanine] |
| ≤ 50 | ≤ 10 | ≤ 50 | CC(=N)Nc1ccc(CC(N)C(=O)O)s1 (racemic) [Compound 18, 3-(5-(1-iminoethyl)amino)-2-thienyl)-DL-alanine] |
| – | ≤ 10 | ≤ 10 | CC(=N)Nc1ccccc1CC(N)C(=O)O (racemic) [Compound 19, 2-((1-iminoethyl)amino)-DL-phenylalanine] |
| > 50 | > 50 | > 50 | CNC(=N)NCc1ccc(CC(N)C(=O)O)s1 (racemic) [Compound 20, 3-(5-(N'-methylguanidino)methyl)-2-thienyl)-DL-alanine] |
| > 50 | > 50 | > 50 | N=C(NCc1ccc(CC(N)C(=O)O)s1)NC1CC1 (racemic) [Compound 21, 3-(5-(N'-cyclopropylguanidino)methyl)-2-thienyl)-DL-alanine] |
| > 50 | > 50 | > 50 | CSC(=N)NCc1ccc(CC(N)C(=O)O)s1 (racemic) [Compound 22, 3-(5-((S-methylisothioureido)methyl)-2-thienyl-DL-alanine] |
| ≤ 10 | ≤ 10 | ≤ 10 | CCSC(=N)NCc1ccc(CC(N)C(=O)O)s1 (racemic) [Compound 23, 3-(5-((S-ethylisothioureido)methyl)-2-thienyl)-DL-alanine] |
| > 50 | > 50 | > 50 | CSC(=N)NCc1ccc(C(N)C(=O)O)s1 (racemic) [Compound 24] |
| ≤ 10 | ≤ 10 | ≤ 50 | CCSC(=N)NCc1ccc(C(N)C(=O)O)s1 (racemic) [Compound 25] |
| ≤ 10 | ≤ 50 | ≤ 10 | CSC(=N)Nc1cccc(CC(N)C(=O)O)c1 (racemic) [Compound 26, 3-(S-methylisothioureido)-DL-phenylalanine] |
| ≤ 1 | ≤ 10 | ≤ 10 | CCSC(=N)Nc1cccc(CC(N)C(=O)O)c1 (racemic) [Compound 27, 3-(S-ethylisothioureido)-DL-phenylalanine] |
